From patent US12145947B2, “Pyrimidine based modulators and uses thereof” (Quanta Therapeutics, Inc., priority 2022, dated 2024)

Tests used:
[1] = molecular target: T1, GST-tagged KRAS-G12D (2-169) (Homo sapiens, UniProt P01116, G12D); test: Nucleotide exchange assay (NEA), SOS-mediated, HTRF, KRAS G12D; format: biochemical; details: IC50 extracted at 30 min
T1 construct: GST-tagged KRAS-G12D (2-169, Reaction Biology, MSC-11-539); purchased Reaction Biology MSC-11-539 (KRAS G12D); MSC-11-502 (SOS1cat)
In short: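 IC50 values come from 4-parameter fits at the 30 min time point of an SOS-driven exchange read by HTRF, normalised to DMSO (0%) and SOS-free blank (100%). Final reaction: 5 nM GST-KRAS-G12D (2-169), 20 nM SOScat, 150 nM fluorescent GTP-DY-647P1, after 1 h RT compound preincubation with KRAS and Tb-cryptate anti-GST.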

KRAS G12D/RAF1 = molecular target: T2, KRAS G12D/RAF1 (Homo sapiens, UniProt P01116, G12D); test: Protein-protein interaction (PPI) HTRF assay KRAS G12D/RAF1; format: binding
T2 construct: His6-MBP (N, cleaved yes); made in house; host or cells: E. coli
In short: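 HTRF pairing of His-tagged RAF1 (52-131) plus Tb-cryptate donor with GppNHp-exchanged biotin-RAS (KRAS 1-169 wt/G12D/G12V, NRAS wt) plus streptavidin-d2 acceptor; compound sits 30 min with RAS first, then 1 h RT with RAF1. IC50 derived from 665/615 ratio, untagged RAF1 defining full inhibition.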

T1 sequence (P01116 2-169 isoform P01116-2 G12D): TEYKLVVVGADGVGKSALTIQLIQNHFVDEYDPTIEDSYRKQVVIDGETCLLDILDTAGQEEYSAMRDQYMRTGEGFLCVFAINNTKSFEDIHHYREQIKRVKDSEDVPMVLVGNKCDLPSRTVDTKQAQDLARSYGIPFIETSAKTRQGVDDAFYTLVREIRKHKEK
T2 sequence (P01116 with tags, fused parts or gaps isoform P01116-2 G12D): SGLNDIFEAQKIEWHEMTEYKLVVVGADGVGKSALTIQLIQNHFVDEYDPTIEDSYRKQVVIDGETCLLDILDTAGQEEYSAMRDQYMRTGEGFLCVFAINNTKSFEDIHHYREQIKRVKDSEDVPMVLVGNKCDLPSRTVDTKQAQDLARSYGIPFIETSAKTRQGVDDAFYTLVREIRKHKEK

N#Cc1c(N2C[C@H]3CC[C@@H](C2)N3)nc(OCC2(CN3CCOCC3)CC2)nc1N1CC2(C=CCc3sc(N)c(C#N)c32)C1 [Compound 86, 2-amino-1′-[5-cyano-2-[[1-(morpholinomethyl)cyclopropyl]methoxy]-6-[(1R,5S)-3,8-diazabicyclo[3.2.1]octan-3-yl]pyrimidin-4-yl]spiro[7H-benzothiophene-4,3′-azetidine]-3-carbonitrile]
IC50 ([1]; Table 4): < 10 nM
IC50 (KRAS G12D/RAF1; Table 4): < 100 nM

N#Cc1c(N2C[C@H]3CC[C@@H](C2)N3)nc(OCC2(CN3CCOCC3)CC2)nc1N1CC2(C1)c1c(sc(N)c1C#N)CC2F (stereo partly drawn) [Compound 101, 2-amino-1′-[5-cyano-6-[(1R,5S)-3,8-diazabicyclo[3.2.1]octan-3-yl]-2-[[1-(morpholinomethyl)cyclopropyl]methoxy]pyrimidin-4-yl]-5-fluoro-spiro[5,6-dihydrocyclopenta[b]thiophene-4,3′-azetidine]-3-carbonitrile]
IC50 ([1]; Table 4): < 10 nM
IC50 (KRAS G12D/RAF1; Table 4): 100 to 1000 nM

CN(C)CC1(COc2nc(N3CCCn4nc(C(=O)N(C)C)c(Cl)c4C3)c(C#N)c(N3CC4(CCc5sc(N)c(C#N)c54)C3)n2)CC1(F)F (stereo not drawn) [Compound 87, 5-[6-(2-amino-3-cyano-spiro[5,6-dihydrocyclopenta[b]thiophene-4,3′-azetidine]-1′-yl)-5-cyano-2-[[1-[(dimethylamino)methyl]-2,2-difluoro-cyclopropyl]methoxy]pyrimidin-4-yl]-3-chloro-N,N-dimethyl-4,6,7,8-tetrahydropyrazolo[1,5-a][1,4]diazepine-2-carboxamide]
IC50 ([1]; Table 4): < 10 nM
IC50 (KRAS G12D/RAF1; Table 4): 1000 to 10000 nM

CN(C)C(=O)c1nn2c(c1Cl)CN(c1nc(OCC34CCCN3CCC4)nc(N3CC4(CCc5sc(N)c(C#N)c54)C3)c1C#N)CCC2 [Compound 18, 5-[6-(2-amino-3-cyano-spiro[5,6-dihydrocyclopenta[b]thiophene-4,3′-azetidine]-1′-yl)-5-cyano-2-(1,2,3,5,6,7-hexahydropyrrolizin-8-ylmethoxy)pyrimidin-4-yl]-3-chloro-N,N-dimethyl-4,6,7,8-tetrahydropyrazolo[1,5-a][1,4]diazepine-2-carboxamide]
IC50 ([1]; Table 4): < 10 nM
IC50 (KRAS G12D/RAF1; Table 4): 100 to 1000 nM

N#Cc1c(N2CCCn3nc(C(=O)C4CC4)c(Cl)c3C2)nc(OC[C@@]23CCCN2C[C@H](F)C3)nc1N1CC2(CCc3sc(N)c(C#N)c32)C1 [Compound 62, 2-amino-1′-[6-[3-chloro-2-(cyclopropanecarbonyl)-4,6,7,8-tetrahydropyrazolo[1,5-a][1,4]diazepin-5-yl]-5-cyano-2-[[(2R,8S)-2-fluoro-1,2,3,5,6,7-hexahydropyrrolizin-8-yl]methoxy]pyrimidin-4-yl]spiro[5,6-dihydrocyclopenta[b]thiophene-4,3′-azetidine]-3-carbonitrile]
IC50 ([1]; Table 4): < 10 nM
IC50 (KRAS G12D/RAF1; Table 4): 10000 to 100000 nM

N#Cc1c(N2CCCC(=O)CC2)nc(OC[C@@]23CCCN2C[C@H](F)C3)nc1N1CC2(CCc3sc(N)c(C#N)c32)C1 [Compound 49, 2-amino-1′-[5-cyano-2-[[(2R,8S)-2-fluoro-1,2,3,5,6,7-hexahydropyrrolizin-8-yl]methoxy]-6-(4-oxoazepan-1-yl)pyrimidin-4-yl]spiro[5,6-dihydrocyclopenta[b]thiophene-4,3′-azetidine]-3-carbonitrile]
IC50 ([1]; Table 4): 10 to 100 nM
IC50 (KRAS G12D/RAF1; Table 4): 10000 to 100000 nM

CN(C)CC1(COc2nc(N3C[C@H]4CC[C@@H](C3)N4)c(C#N)c(N3CC4(CCc5sc(N)c(C#N)c54)C3)n2)COC1 [Compound 52, 2-amino-1′-[5-cyano-6-[(1R,5S)-3,8-diazabicyclo[3.2.1]octan-3-yl]-2-[[3-[(dimethylamino)methyl]oxetan-3-yl]methoxy]pyrimidin-4-yl]spiro[5,6-dihydrocyclopenta[b]thiophene-4,3′-azetidine]-3-carbonitrile]
IC50 ([1]; Table 4): < 10 nM
IC50 (KRAS G12D/RAF1; Table 4): 100 to 1000 nM

N#Cc1c(N2C[C@H]3CC[C@@H](C2)N3)nc(OCC2(CN3CCOCC3)CC2)nc1N1CC2(CCCCc3sc(N)c(C#N)c32)C1 [Compound 70, 2-amino-1′-[5-cyano-2-[[1-(morpholinomethyl)cyclopropyl]methoxy]-6-[(1R,5S)-3,8-diazabicyclo[3.2.1]octan-3-yl]pyrimidin-4-yl]spiro[5,6,7,8-tetrahydrocyclohepta[b]thiophene-4,3′-azetidine]-3-carbonitrile]
IC50 ([1]; Table 4): < 10 nM
IC50 (KRAS G12D/RAF1; Table 4): 100 to 1000 nM

N#Cc1c(N)sc2c1C1(CC2)CN(c2nc(OC[C@@]34CCCN3C[C@H](F)C4)nc(N3C[C@H]4CC[C@@H](C3)N4)c2F)C1 [Compound 15, 2-amino-1′-[6-(3,8-diazabicyclo[3.2.1]octan-3-yl)-5-fluoro-2-[[(2R,8S)-2-fluoro-1,2,3,5,6,7-hexahydropyrrolizin-8-yl]methoxy]pyrimidin-4-yl]spiro[5,6-dihydrocyclopenta[b]thiophene-4,3′-azetidine]-3-carbonitrile]
IC50 ([1]; Table 4): < 10 nM
IC50 (KRAS G12D/RAF1; Table 4): 100 to 1000 nM

CN(C)C(=O)c1nn2c(c1Cl)CN(c1nc(OC[C@@]34CCCN3C[C@H](F)C4)nc(N3CC4(CCCc5sc(N)c(C#N)c54)C3)c1C#N)CCC2 [Compound 3, 5-[6-(2-amino-3-cyano-spiro[6,7-dihydro-5H-benzothiophene-4,3′-azetidine]-1′-yl)-5-cyano-2-[[(2R,8S)-2-fluoro-1,2,3,5,6,7-hexahydropyrrolizin-8-yl]methoxy]pyrimidin-4-yl]-3-chloro-N,N-dimethyl-4,6,7,8-tetrahydropyrazolo[1,5-a][1,4]diazepine-2-carboxamide]
IC50 ([1]; Table 2): < 10 nM
IC50 ([1]; Table 4): < 10 nM
IC50 (KRAS G12D/RAF1; Table 2): 10000 to 100000 nM
IC50 (KRAS G12D/RAF1; Table 4): 1000 to 10000 nM

Cn1c(-c2nn3c(c2Cl)CN(c2nc(OC[C@@]45CCCN4C[C@H](F)C5)nc(N4CC5(CCc6sc(N)c(C#N)c65)C4)c2C#N)CCC3)nc2c(F)cccc21 [Compound 32, 2-amino-1′-[6-[3-chloro-2-(4-fluoro-1-methyl-benzimidazol-2-yl)-4,6,7,8-tetrahydropyrazolo[1,5-a][1,4]diazepin-5-yl]-5-cyano-2-[[(2R,8S)-2-fluoro-1,2,3,5,6,7-hexahydropyrrolizin-8-yl]methoxy]pyrimidin-4-yl]spiro[5,6-dihydrocyclopenta[b]thiophene-4,3′-azetidine]-3-carbonitrile]
IC50 ([1]; Table 4): < 10 nM
IC50 (KRAS G12D/RAF1; Table 4): 10000 to 100000 nM

CN(C)C(=O)c1cc2n(n1)CCCN(c1nc(OC[C@@]34CCCN3C[C@H](F)C4)nc(N3CC4(CCc5sc(N)c(C#N)c54)C3)c1C#N)C2 [Compound 8, 5-[6-(2-amino-3-cyano-spiro[5,6-dihydrocyclopenta[b]thiophene-4,3′-azetidine]-1′-yl)-5-cyano-2-[[(2R,8S)-2-fluoro-1,2,3,5,6,7-hexahydropyrrolizin-8-yl]methoxy]pyrimidin-4-yl]-N,N-dimethyl-4,6,7,8-tetrahydropyrazolo[1,5-a][1,4]diazepine-2-carboxamide]
IC50 ([1]; Table 4): < 10 nM
IC50 (KRAS G12D/RAF1; Table 4): 1000 to 10000 nM

N#Cc1c(N2C[C@H]3CC[C@@H](C2)N3)nc(OCc2ccccc2)nc1N1CC2(CCc3sc(N)c(C#N)c32)C1 [Compound 76, 2-amino-1′-[2-benzyloxy-5-cyano-6-[(1R,5S)-3,8-diazabicyclo[3.2.1]octan-3-yl]pyrimidin-4-yl]spiro[5,6-dihydrocyclopenta[b]thiophene-4,3′-azetidine]-3-carbonitrile]
IC50 ([1]; Table 4): < 10 nM
IC50 (KRAS G12D/RAF1; Table 4): 100 to 1000 nM

N#Cc1c(N2C[C@H]3CC[C@@H](C2)N3)nc(OC[C@@]23CCCN2C[C@H](F)C3)nc1N1CC2(C1)c1c(sc(N)c1C#N)CC1CC12 (stereo partly drawn) [Compound 99, 2-amino-1′-[5-cyano-6-[(1R,5S)-3,8-diazabicyclo[3.2.1]octan-3-yl]-2-[[(2R,8S)-2-fluoro-1,2,3,5,6,7-hexahydropyrrolizin-8-yl]methoxy]pyrimidin-4-yl]spiro[4a,5,5a,6-tetrahydrocyclopropa[f]benzothiophene-4,3′-azetidine]-3-carbonitrile]
IC50 ([1]; Table 4): < 10 nM
IC50 (KRAS G12D/RAF1; Table 4): 100 to 1000 nM

CN1CCN(CC2(COc3nc(N4C[C@H]5CC[C@@H](C4)N5)c(C#N)c(N4CC5(CCc6sc(N)c(C#N)c65)C4)n3)CC2)CC1=O [Compound 80, 2-amino-1′-[5-cyano-2-[[1-[(4-methyl-3-oxo-piperazin-1-yl)methyl]cyclopropyl]methoxy]-6-[(1R,5S)-3,8-diazabicyclo[3.2.1]octan-3-yl]pyrimidin-4-yl]spiro[5,6-dihydrocyclopenta[b]thiophene-4,3′-azetidine]-3-carbonitrile]
IC50 ([1]; Table 4): < 10 nM
IC50 (KRAS G12D/RAF1; Table 4): 100 to 1000 nM

N#Cc1c(N2C[C@H]3CC[C@@H](C2)N3)nc(OCC2(CN3CCOCC3)CC2)nc1N1CC2(CCc3sc(N)nc32)C1 [Compound 23, 4-(2-aminospiro[5,6-dihydrocyclopenta[d]thiazole-4,3′-azetidine]-1′-yl)-2-[[1-(morpholinomethyl)cyclopropyl]methoxy]-6-[(1R,5S)-3,8-diazabicyclo[3.2.1]octan-3-yl]pyrimidine-5-carbonitrile]
IC50 ([1]; Table 4): < 10 nM
IC50 (KRAS G12D/RAF1; Table 4): 1000 to 10000 nM

CN(C)C(=O)c1nn2c(c1Cl)CN(c1nc(OCC3(CN4CCOCC4)CC3)nc(N3CC4(CCc5sc(N)c(C#N)c54)C3)c1C#N)CCC2 [Compound 5, 5-[6-(2-amino-3-cyano-spiro[5,6-dihydrocyclopenta[b]thiophene-4,3′-azetidine]-1′-yl)-5-cyano-2-[[1-(morpholinomethyl)cyclopropyl]methoxy]pyrimidin-4-yl]-3-chloro-N,N-dimethyl-4,6,7,8-tetrahydropyrazolo[1,5-a][1,4]diazepine-2-carboxamide]
IC50 ([1]; Table 4): < 10 nM
IC50 (KRAS G12D/RAF1; Table 4): 1000 to 10000 nM
